Converted amounts (≈) assume the structure as drawn.
How the values were obtained:
Gaeumannomyces tritici [1] = assay: Antifungal activity against sithiofam-sensitive Gaeumannomyces graminis var. tritici isolate AH15 expressing C2 genetic cluster assessed as reduction in fungal colony diameter after 4 days; format: functional, organism-based; settings: isolate AH15, 96 h
Gaeumannomyces tritici [2] = assay: Antifungal activity against sithiofam-sensitive Gaeumannomyces graminis var. tritici isolate HN23 expressing C2 genetic cluster assessed as reduction in fungal colony diameter after 4 days; format: functional, organism-based; settings: isolate HN23, 96 h
Gaeumannomyces tritici [3] = assay: Antifungal activity against sithiofam-sensitive Gaeumannomyces graminis var. tritici isolate HN19 expressing C2 genetic cluster assessed as reduction in fungal colony diameter after 4 days; format: functional, organism-based; settings: isolate HN19, 96 h
Gaeumannomyces tritici [4] = assay: Antifungal activity against sithiofam-sensitive Gaeumannomyces graminis var. tritici isolate SD05 expressing C2 genetic cluster assessed as reduction in fungal colony diameter after 4 days; format: functional, organism-based; settings: isolate SD05, 96 h
Gaeumannomyces tritici [5] = assay: Antifungal activity against sithiofam-sensitive Gaeumannomyces graminis var. tritici isolate AH11 expressing C2 genetic cluster assessed as reduction in fungal colony diameter after 4 days; format: functional, organism-based; settings: isolate AH11, 96 h
Gaeumannomyces tritici [6] = assay: Antifungal activity against sithiofam-resistant Gaeumannomyces graminis var. tritici isolate HN03 expressing C1 genetic cluster assessed as reduction in fungal colony diameter after 4 days; format: functional, organism-based; settings: isolate HN03, 96 h
Gaeumannomyces tritici [7] = assay: Antifungal activity against sithiofam-resistant Gaeumannomyces graminis var. tritici isolate HN07 expressing C1 genetic cluster assessed as reduction in fungal colony diameter after 4 days; format: functional, organism-based; settings: isolate HN07, 96 h
Gaeumannomyces tritici [8] = assay: Antifungal activity against sithiofam-sensitive Gaeumannomyces graminis var. tritici isolate SD06 expressing C2 genetic cluster assessed as reduction in fungal colony diameter after 4 days; format: functional, organism-based; settings: isolate SD06, 96 h
Gaeumannomyces tritici [9] = assay: Antifungal activity against sithiofam-sensitive Gaeumannomyces graminis var. tritici isolate AH03 expressing C2 genetic cluster assessed as reduction in fungal colony diameter after 4 days; format: functional, organism-based; settings: isolate AH03, 96 h
Gaeumannomyces tritici [10] = assay: Antifungal activity against sithiofam-sensitive Gaeumannomyces graminis var. tritici isolate HN31 expressing C3 genetic cluster assessed as reduction in fungal colony diameter after 4 days; format: functional, organism-based; settings: isolate HN31, 96 h
Gaeumannomyces tritici [11] = assay: Antifungal activity against sithiofam-resistant Gaeumannomyces graminis var. tritici isolate AH02 expressing C1 genetic cluster assessed as fungal induced root necrosis administered to wheat cultivar Huaimai 30 seeds grown on fungal infested soils at 0.25 g ai/kg measured after 10 days (reference value: 28.16%); format: functional
Gaeumannomyces tritici [12] = assay: Antifungal activity against sithiofam-sensitive Gaeumannomyces graminis var. tritici isolate HN22 expressing C2 genetic cluster assessed as reduction in fungal colony diameter after 4 days; format: functional, organism-based; settings: isolate HN22, 96 h
Gaeumannomyces tritici [13] = assay: Antifungal activity against sithiofam-sensitive Gaeumannomyces graminis var. tritici isolate SD05 expressing C2 genetic cluster assessed as fungal induced root necrosis administered to wheat cultivar Huaimai 30 seeds grown on fungal infested soils at 0.25 g ai/kg measured after 10 days (reference value: 27.71%); format: functional
Gaeumannomyces tritici [14] = assay: Antifungal activity against sithiofam-sensitive Gaeumannomyces graminis var. tritici isolate AH05 expressing C2 genetic cluster assessed as reduction in fungal colony diameter after 4 days; format: functional, organism-based; settings: isolate AH05, 96 h
Gaeumannomyces tritici [15] = assay: Antifungal activity against sithiofam-resistant Gaeumannomyces graminis var. tritici isolate HN13 expressing C1 genetic cluster assessed as reduction in fungal colony diameter after 4 days; format: functional, organism-based; settings: isolate HN13, 96 h
Gaeumannomyces tritici [16] = assay: Antifungal activity against sithiofam-sensitive Gaeumannomyces graminis var. tritici isolate AH16 expressing C2 genetic cluster assessed as reduction in fungal colony diameter after 4 days; format: functional, organism-based; settings: isolate AH16, 96 h
Gaeumannomyces tritici [17] = assay: Antifungal activity against sithiofam-sensitive Gaeumannomyces graminis var. tritici isolate JS01 expressing C1 genetic cluster assessed as reduction in fungal colony diameter after 4 days; format: functional, organism-based; settings: isolate JS01, 96 h
Gaeumannomyces tritici [18] = assay: Antifungal activity against sithiofam-resistant Gaeumannomyces graminis var. tritici isolate HN04 expressing C1 genetic cluster assessed as reduction in fungal colony diameter after 4 days; format: functional, organism-based; settings: isolate HN04, 96 h
Gaeumannomyces tritici [19] = assay: Antifungal activity against sithiofam-sensitive Gaeumannomyces graminis var. tritici isolate HN29 expressing C2 genetic cluster assessed as reduction in fungal colony diameter after 4 days; format: functional, organism-based; settings: isolate HN29, 96 h
Gaeumannomyces tritici [20] = assay: Antifungal activity against sithiofam-resistant Gaeumannomyces graminis var. tritici isolate HN12 expressing C1 genetic cluster assessed as reduction in fungal colony diameter after 4 days; format: functional, organism-based; settings: isolate HN12, HN12, 96 h
Gaeumannomyces tritici [21] = assay: Antifungal activity against sithiofam-sensitive Gaeumannomyces graminis var. tritici isolate HN25 expressing C2 genetic cluster assessed as reduction in fungal colony diameter after 4 days; format: functional, organism-based; settings: isolate HN25, 96 h
Gaeumannomyces tritici [22] = assay: Antifungal activity against sithiofam-sensitive Gaeumannomyces graminis var. tritici isolate HN26 expressing C2 genetic cluster assessed as reduction in fungal colony diameter after 4 days; format: functional, organism-based; settings: isolate HN26, 96 h
Gaeumannomyces tritici [23] = assay: Antifungal activity against sithiofam-resistant Gaeumannomyces graminis var. tritici isolate HN16 expressing C1 genetic cluster assessed as reduction in fungal colony diameter after 4 days; format: functional, organism-based; settings: isolate HN16, 96 h
Gaeumannomyces tritici [24] = assay: Antifungal activity against sithiofam-resistant Gaeumannomyces graminis var. tritici isolate AH14 expressing C1 genetic cluster assessed as fungal induced root necrosis administered to wheat cultivar Huaimai 30 seeds grown on fungal infested soils at 0.25 g ai/kg measured after 10 days (reference value: 28.16%); format: functional
Gaeumannomyces tritici [25] = assay: Antifungal activity against sithiofam-resistant Gaeumannomyces graminis var. tritici isolate JS04 expressing C1 genetic cluster assessed as reduction in fungal colony diameter after 4 days; format: functional, organism-based; settings: isolate JS04, 96 h
Gaeumannomyces tritici [26] = assay: Antifungal activity against sithiofam-sensitive Gaeumannomyces graminis var. tritici isolate SD01 expressing C2 genetic cluster assessed as reduction in fungal colony diameter after 4 days; format: functional, organism-based; settings: isolate SD01, 96 h
Gaeumannomyces tritici [27] = assay: Antifungal activity against sithiofam-sensitive Gaeumannomyces graminis var. tritici isolate JS03 expressing C1 genetic cluster assessed as reduction in fungal colony diameter after 4 days; format: functional, organism-based; settings: isolate JS03, 96 h
Gaeumannomyces tritici [28] = assay: Antifungal activity against sithiofam-sensitive Gaeumannomyces graminis var. tritici isolate HN28 expressing C2 genetic cluster assessed as reduction in fungal colony diameter after 4 days; format: functional, organism-based; settings: isolate HN28, 96 h
Gaeumannomyces tritici [29] = assay: Antifungal activity against sithiofam-resistant Gaeumannomyces graminis var. tritici isolate AH06 expressing C1 genetic cluster assessed as reduction in fungal colony diameter after 4 days; format: functional, organism-based; settings: isolate AH06, 96 h
Gaeumannomyces tritici [30] = assay: Antifungal activity against sithiofam-resistant Gaeumannomyces graminis var. tritici isolate HN27 expressing […] genetic cluster assessed as reduction in fungal colony diameter after 4 days; format: functional, organism-based; settings: isolate HN27, 96 h
Gaeumannomyces tritici [31] = assay: Antifungal activity against sithiofam-sensitive Gaeumannomyces graminis var. tritici isolate AH08 expressing C2 genetic cluster assessed as reduction in fungal colony diameter after 4 days; format: functional, organism-based; settings: isolate AH08, 96 h
Gaeumannomyces tritici [32] = assay: Antifungal activity against sithiofam-sensitive Gaeumannomyces graminis var. tritici isolate SD04 expressing C2 genetic cluster assessed as fungal induced root necrosis administered to wheat cultivar Huaimai 30 seeds grown on fungal infested soils at 0.25 g ai/kg measured after 10 days (reference value: 27.34%); format: functional
Gaeumannomyces tritici [33] = assay: Antifungal activity against sithiofam-sensitive Gaeumannomyces graminis var. tritici isolate JS08 expressing C2 genetic cluster assessed as reduction in fungal colony diameter after 4 days; format: functional, organism-based; settings: isolate JS08, 96 h

SMILES | EC50 (Gaeumannomyces tritici [1]) | EC50 (Gaeumannomyces tritici [2]) | EC50 (Gaeumannomyces tritici [3]) | EC50 (Gaeumannomyces tritici [4]) | EC50 (Gaeumannomyces tritici [5]) | EC50 (Gaeumannomyces tritici [6]) | EC50 (Gaeumannomyces tritici [7]) | EC50 (Gaeumannomyces tritici [8]) | EC50 (Gaeumannomyces tritici [9]) | EC50 (Gaeumannomyces tritici [10]) | EC50 (Gaeumannomyces tritici [12]) | EC50 (Gaeumannomyces tritici [14]) | EC50 (Gaeumannomyces tritici [15]) | EC50 (Gaeumannomyces tritici [16]) | EC50 (Gaeumannomyces tritici [17]) | EC50 (Gaeumannomyces tritici [18]) | EC50 (Gaeumannomyces tritici [19]) | EC50 (Gaeumannomyces tritici [20]) | EC50 (Gaeumannomyces tritici [21]) | EC50 (Gaeumannomyces tritici [22]) | further results
C=CCNC(=O)c1c([Si](C)(C)C)sc(C)c1C [SILTHIOFAM] | 0.5 ng/mL (≈ 0.00187 µM) | 0.9 ng/mL (≈ 0.00336 µM) | 0.1 ng/mL (≈ 0.000374 µM) | 0.7 ng/mL (≈ 0.00262 µM) | 0.4 ng/mL (≈ 0.0015 µM) | 30000 ng/mL (≈ 112 µM) | 29800 ng/mL (≈ 112 µM) | 1.2 ng/mL (≈ 0.00449 µM) | 0.3 ng/mL (≈ 0.00112 µM) | 0.4 ng/mL (≈ 0.0015 µM) | 2.4 ng/mL (≈ 0.00897 µM) | 1.3 ng/mL (≈ 0.00486 µM) | 51800 ng/mL (≈ 194 µM) | 0.3 ng/mL (≈ 0.00112 µM) | 0.2 ng/mL (≈ 0.000748 µM) | 31900 ng/mL (≈ 119 µM) | 0.2 ng/mL (≈ 0.000748 µM) | 53000 ng/mL (≈ 198 µM) | 1.1 ng/mL (≈ 0.00411 µM) | 1.8 ng/mL (≈ 0.00673 µM) | Activity (Gaeumannomyces tritici [11]): 28%; Activity (Gaeumannomyces tritici [13]): 3.19%; EC50 (Gaeumannomyces tritici [23]): 28600 ng/mL (≈ 107 µM); Activity (Gaeumannomyces tritici [24]): 28.42%; EC50 (Gaeumannomyces tritici [25]): 30300 ng/mL (≈ 113 µM); EC50 (Gaeumannomyces tritici [26]): 0.8 ng/mL (≈ 0.00299 µM); EC50 (Gaeumannomyces tritici [27]): 1.6 ng/mL (≈ 0.00598 µM); EC50 (Gaeumannomyces tritici [28]): 0.5 ng/mL (≈ 0.00187 µM); EC50 (Gaeumannomyces tritici [29]): 29100 ng/mL (≈ 109 µM); EC50 (Gaeumannomyces tritici [30]): 121000 ng/mL (≈ 451 µM); EC50 (Gaeumannomyces tritici [31]): 1.3 ng/mL (≈ 0.00486 µM); Activity (Gaeumannomyces tritici [32]): 1.02%; EC50 (Gaeumannomyces tritici [33]): 0.2 ng/mL (≈ 0.000748 µM)
CC(C)(C)C(O)(CCc1ccc(Cl)cc1)Cn1cncn1 (configuration not stated) [TEBUCONAZOLE] | 26.3 ng/mL (≈ 0.0854 µM) | 78 ng/mL (≈ 0.253 µM) | 47.8 ng/mL (≈ 0.155 µM) | 68.8 ng/mL (≈ 0.224 µM) | 39.5 ng/mL (≈ 0.128 µM) | 72.4 ng/mL (≈ 0.235 µM) | 51.3 ng/mL (≈ 0.167 µM) | 64.6 ng/mL (≈ 0.21 µM) | 62.2 ng/mL (≈ 0.202 µM) | 111 ng/mL (≈ 0.362 µM) | 39 ng/mL (≈ 0.127 µM) | 90.2 ng/mL (≈ 0.293 µM) | 68.9 ng/mL (≈ 0.224 µM) | 96.5 ng/mL (≈ 0.313 µM) | 32.5 ng/mL (≈ 0.106 µM) | 56 ng/mL (≈ 0.182 µM) | 76 ng/mL (≈ 0.247 µM) | 76 ng/mL (≈ 0.247 µM) | 86 ng/mL (≈ 0.279 µM) | 72.2 ng/mL (≈ 0.235 µM) | EC50 (Gaeumannomyces tritici [23]): 59.9 ng/mL (≈ 0.195 µM); EC50 (Gaeumannomyces tritici [25]): 201 ng/mL (≈ 0.652 µM); EC50 (Gaeumannomyces tritici [26]): 176 ng/mL (≈ 0.573 µM); EC50 (Gaeumannomyces tritici [27]): 74.2 ng/mL (≈ 0.241 µM); EC50 (Gaeumannomyces tritici [28]): 180 ng/mL (≈ 0.584 µM); EC50 (Gaeumannomyces tritici [29]): 28.3 ng/mL (≈ 0.0919 µM); EC50 (Gaeumannomyces tritici [30]): 53.6 ng/mL (≈ 0.174 µM); EC50 (Gaeumannomyces tritici [31]): 48.9 ng/mL (≈ 0.159 µM); EC50 (Gaeumannomyces tritici [33]): 51 ng/mL (≈ 0.166 µM)

Reference: ChEMBL document CHEMBL3046329, “Sensitivity to silthiofam, tebuconazole and difenoconazole of Gaeumannomyces graminis var. tritici isolates from China” (Pest Manag Sci, 2012)
